Measured values as given in US7473699B2, “3-cyclyl-5-(nitrogen-containing 5-membered ring)methyl-oxazolidinone derivatives and their use as antibacterial agents” (AstraZeneca AB, priority 2002, dated 2009).
≈ marks a conversion by molar mass, not a printed value. Where two headings read alike, the source gives them in different places.

What was measured:
[1] = tested on: Staphylococcus aureus MSQS; assay: MIC, agar-dilution, Staphylococcus aureus MSQS; type: cell-based; conditions: Staphylococcus aureus MSQS (methicillin sensitive and quinolone sensitive)
Description: (§1) The following results were obtained on a standard in-vitro test system. The activity is described in terms of the minimum inhibitory concentration (MIC) determined by the agar-dilution technique with an inoculum size of 10^4 CFU/spot. Typically, compounds are active in the range 0.01 to 256 μg/ml.
(§2) Staphylococci were tested on agar, using an inoculum of 10^4 CFU/spot and an incubation temperature of 37° C. for 24 hours—standard test conditions for the expression of methicillin resistance.

[2] = tested on: Staphylococcus aureus MRQR; assay: MIC, agar-dilution, Staphylococcus aureus MRQR; type: cell-based; conditions: Staphylococcus aureus MRQR (methicillin resistant and quinolone resistant)
Description: as §1, §2

Streptococcus pneumoniae = assay: MIC, agar-dilution, Streptococcus pneumoniae; type: cell-based
Description: as §1
(§3) Streptococci and enterococci were tested on agar supplemented with 5% defibrinated horse blood, an inoculum of 10^4 CFU/spot and an incubation temperature of 37° C. in an atmosphere of 5% carbon dioxide for 48 hours—blood is required for the growth of some of the test organisms. Fastidious Gram negative organisms were tested in Mueller-Hinton broth, supplemented with hemin and NAD, grown aerobically for 24 hours at 37° C., and with an innoculum of 5×10^4 CFU/well.

Streptococcus pyogenes = assay: MIC, agar-dilution, Streptococcus pyogenes; type: cell-based
Description: as §1, §3

Haemophilus influenzae = assay: MIC, fastidious Gram negative organisms in Mueller-Hinton broth, Haemophilus influenzae; type: cell-based
Description: as §1, §3

Moraxella catarrhalis = assay: MIC, fastidious Gram negative organisms in Mueller-Hinton broth, Moraxella catarrhalis; type: cell-based
Description: as §1, §3

MAO-A = target: T1, MAO-A (Homo sapiens, UniProt P21397); assay: MAO-A standard in-vitro assay, human liver enzyme expressed in yeast; type: biochemical
T1 construct: made in house; host or cells: yeast
T1 sequence (P21397 1-527): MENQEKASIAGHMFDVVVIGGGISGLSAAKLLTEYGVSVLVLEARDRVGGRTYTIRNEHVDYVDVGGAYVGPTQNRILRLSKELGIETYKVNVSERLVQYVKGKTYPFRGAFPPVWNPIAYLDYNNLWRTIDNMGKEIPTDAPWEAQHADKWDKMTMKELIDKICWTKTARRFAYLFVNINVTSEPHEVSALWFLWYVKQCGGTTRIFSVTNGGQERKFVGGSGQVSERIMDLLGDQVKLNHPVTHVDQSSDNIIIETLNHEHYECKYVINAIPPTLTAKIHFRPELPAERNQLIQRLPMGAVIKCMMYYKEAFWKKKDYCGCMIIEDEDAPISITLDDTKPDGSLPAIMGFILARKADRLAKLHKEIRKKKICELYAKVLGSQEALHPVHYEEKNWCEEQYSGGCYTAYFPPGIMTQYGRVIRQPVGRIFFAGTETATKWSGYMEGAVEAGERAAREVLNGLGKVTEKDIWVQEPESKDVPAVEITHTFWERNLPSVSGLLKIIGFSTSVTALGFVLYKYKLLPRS
Description: The activity of the compounds of the invention against MAO-A was tested using a standard in-vitro assay based on human liver enzyme expressed in yeast as described in Biochem. Biophys. Res. Commun. 1991, 181, 1084-1088. Ki values were determined using serial two-fold dilutions from […] to 0.04 μM.

[3] = first line (strain not given), read-out: MIC

MIC [1] [µg/mL] | MIC [2] [µg/mL] | MIC (Streptococcus pneumoniae; [3]) [µg/mL] | MIC (Streptococcus pneumoniae; second line (strain not given)) [µg/mL] | MIC (Streptococcus pyogenes) [µg/mL] | MIC (Haemophilus influenzae) [µg/mL] | MIC (Moraxella catarrhalis) [µg/mL] | Ki (MAO-A) [µM] | Compound
2 | 4 | 0.5 | 0.5 | 1 | 2 | 2 | 16 | Cc1cn(C[C@H]2CN(c3ccc(C4=CC[S+]([O-])CC4)c(F)c3)C(=O)O2)nn1 (mixture of isomers) [Example 1, (5R)-3-[4-(1(R,S)-Oxo-3,6-dihydro-2H-thiopyran-4-yl)-3-fluorophenyl]-5-[(4-methyl)-1,2,3-triazol-1-ylmethyl]oxazolidin-2-one]
2 (≈ 5.31 µM) | 2 (≈ 5.31 µM) | 1 (≈ 2.66 µM) | 1 (≈ 2.66 µM) | 1 (≈ 2.66 µM) | 4 (≈ 10.6 µM) | 2 (≈ 5.31 µM) | 3.6 | O=C1O[C@@H](Cn2ccnn2)CN1c1ccc(C2=CC[S+]([O-])CC2)c(F)c1 (some centres unmarked) [Reference Example 1]
 |  |  |  |  |  |  | 0.5 | CC(=O)NC[C@H]1CN(c2ccc(C3=CC[S+]([O-])CC3)c(F)c2)C(=O)O1 (some centres unmarked) [Reference Example 2]
